The supplement of paper PMC11061612

Assays:
[1] = system: CAL-72 (Osteosarcoma); experiment: Bliss excess, mean over the matrix (fraction); higher = more synergy
Method in brief: (§1)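 Cell lines in DMEM/F12 or RPMI with 10% FBS were plated in 1536-well plates, held 24 hours at 37°C, 5% CO2, then given two-drug dose matrices for 72 hours (DMSO typically 0.2%). Viability was read by CellTiter-Glo 2.0 luminescence and scaled as inhibition from 0 (vehicle wells) to 1 (blank wells). Combination Emax is the second-highest inhibition in the matrix; Bliss excess is observed combination effect minus expected EA + EB − EA·EB, EA and EB being single-agent effects.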

[2] = system: LS-123 (Colorectal Carcinoma); experiment: as above
Method in brief: as §1

[3] = system: WSU-NHL (B-Cell Non-Hodgkin's Lymphoma); experiment: as above
Method in brief: as §1

[4] = system: HH (T-Cell Non-Hodgkin's Lymphoma); experiment: combination Emax (second highest fraction inhibited in the dose matrix, 72 h); higher = more inhibition; extreme values may be limits of the assay
Method in brief: as §1

[5] = system: LNZTA3WT4 (Low Grade Glioma); experiment: as above
Method in brief: as §1

[6] = system: LOXIMVI (Melanoma); experiment: as above
Method in brief: as §1

[7] = system: NCI-H524 (Small Cell Lung Carcinoma); experiment: as above
Method in brief: as §1

[8] = system: OVCAR-5 (Ovarian Carcinoma); experiment: as above
Method in brief: as §1

[9] = system: SAS (Oral Cavity Carcinoma); experiment: as above
Method in brief: as §1

[10] = system: SNU-449 (Hepatocellular Carcinoma); experiment: as above
Method in brief: as §1

[11] = system: YAPC (Pancreatic Carcinoma); experiment: as above
Method in brief: as §1

[12] = system: NCI-H2722 (Mesothelioma); experiment: Bliss excess, mean over the matrix (fraction); higher = more synergy
Method in brief: as §1

[13] = system: BPH-1 (Non-Cancerous); experiment: combination Emax (second highest fraction inhibited in the dose matrix, 72 h); higher = more inhibition; extreme values may be limits of the assay
Method in brief: as §1

[14] = system: Hs-746T (Gastric Carcinoma); experiment: as above
Method in brief: as §1

[15] = system: L-428 (Hodgkin's Lymphoma); experiment: as above
Method in brief: as §1

[16] = system: LCLC-97TM1 (Non-Small Cell Lung Carcinoma); experiment: as above
Method in brief: as §1

[17] = system: NCI-H1568 (Lung Adenocarcinoma); experiment: as above
Method in brief: as §1

[18] = system: NCI-H2052 (Mesothelioma); experiment: as above
Method in brief: as §1

[19] = system: NCI-H209 (Small Cell Lung Carcinoma); experiment: as above
Method in brief: as §1

[20] = system: SW1573 (Lung Adenocarcinoma); experiment: as above
Method in brief: as §1
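For Bliss excess, mean over the matrix in this document: after 72 h of two-drug dosing.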

Compound	Bliss excess [1]	Bliss excess [2]	Bliss excess [3]	combination Emax [4]	combination Emax [5]	combination Emax [6]	combination Emax [7]	combination Emax [8]	combination Emax [9]	combination Emax [10]	combination Emax [11]	Bliss excess [12]	combination Emax [13]	combination Emax [14]	combination Emax [15]	combination Emax [16]	combination Emax [17]	combination Emax [18]	combination Emax [19]	combination Emax [20]
N#Cc1cnc(Nc2cc(NC[C@H]3CNCCO3)c(C(F)(F)F)cn2)cn1 [SRA737] + C=CCn1c(=O)c2cnc(Nc3ccc(N4CCN(C)CC4)cc3)nc2n1-c1cccc(C(C)(C)O)n1 [AZD1775] (first compound max 10 µM, partner max 1 µM)	0.0934	-0.0025	0.187	0.475	0.91	0.562	0.912	0.762	0.824	0.562	0.495	–	–	–	–	–	–	–	–	–
Cc1cc2ncnn2cc1Nc1ncc2c(n1)n(C1CCOCC1)c(=O)n2C [AZD7648] + CN(C)CCCOc1ccc(-c2ccc3ncc4c(c3c2)n(C2CCOCC2)c(=O)n4C)cn1 [AZD0156] (first compound max 10 µM, 7x7, partner max 1 µM)	-0.0908	0.0338	-0.0531	0.285	0.276	0.478	0.312	0.287	0.307	0.282	0.209	-0.0023	0.378	0.36	0.37	0.159	0.24	0.428	0.237	0.164
N#Cc1cnc(Nc2cc(NC[C@H]3CNCCO3)c(C(F)(F)F)cn2)cn1 [SRA737] + CCc1c2c(nc3ccc(O)cc13)-c1cc3c(c(=O)n1C2)COC(=O)[C@]3(O)CC [SN-38] (first compound max 10 µM, 7x7, partner max 0.3 µM)	0.0489	-0.0163	-0.0324	0.452	0.84	0.859	0.938	0.784	1	0.704	0.696	–	–	–	–	–	–	–	–	–
C[C@@H](c1ccc2nccn2c1)n1nnc2ncc(-c3cnn(C)c3)nc21 [Savolitinib] + CC1(C)CCC(CN2CCN(c3ccc(C(=O)NS(=O)(=O)c4ccc(NCC5CCOCC5)c([N+](=O)[O-])c4)c(Oc4cnc5[nH]ccc5c4)c3)CC2)=C(c2ccc(Cl)cc2)C1 [Venetoclax] (first compound max 1 µM, 7x7, partner max 1 µM)	-0.02	-0.0794	-0.0193	0.134	0.162	0.232	0.13	0.0951	0.138	0.157	0.113	-0.0617	0.136	0.664	0.117	0.0631	0.0767	0.121	0.373	0.052
Cc1cc2ncnn2cc1Nc1ncc2c(n1)n(C1CCOCC1)c(=O)n2C [AZD7648] + O=C(c1cc(Cc2n[nH]c(=O)c3ccccc23)ccc1F)N1CCN(C(=O)C2CC2)CC1 [Olaparib] (first compound max 10 µM, 7x7, partner max 10 µM)	-0.0093	-0.0221	-0.057	0.22	0.0958	0.479	0.365	0.231	0.213	0.0839	0.0464	-0.0445	0.515	0.337	0.172	0.199	0.212	0.308	0.917	0.243
CN(CCO)CC[C@H](CSc1ccccc1)Nc1ccc(S(=O)(=O)NC(=O)c2ccc(N3CCC([C@@H](O)c4ccccc4-c4ccc(Cl)cc4)CC3)cc2)cc1S(=O)(=O)C(F)(F)F [AZD4320] + CCN(CCO)CCCOc1ccc2c(Nc3cc(CC(=O)Nc4cccc(F)c4)[nH]n3)ncnc2c1 [AZD2811] (first compound max 1 µM, 7x7, partner max 1 µM)	0.0528	–	-0.0295	0.348	0.122	0.443	0.995	–	0.105	0.154	0.0932	-0.024	0.893	0.487	0.847	0.366	0.248	0.128	1	0.62
Cc1cc2ncnn2cc1Nc1ncc2c(n1)n(C1CCOCC1)c(=O)n2C [AZD7648] + COc1cc([C@@H]2c3cc4c(cc3[C@@H](O[C@@H]3O[C@@H]5CO[C@@H](C)O[C@H]5[C@H](O)[C@H]3O)[C@H]3COC(=O)[C@H]23)OCO4)cc(OC)c1O [Etoposide] (first compound max 10 µM, 7x7, partner max 10 µM)	0.0314	0.0811	0.0848	0.141	0.794	0.699	0.617	0.546	0.985	0.296	0.531	–	–	–	–	–	–	–	–	–
Cc1cc2ncnn2cc1Nc1ncc2c(n1)n(C1CCOCC1)c(=O)n2C [AZD7648] + CCN(CCO)CCCOc1ccc2c(Nc3cc(CC(=O)Nc4cccc(F)c4)[nH]n3)ncnc2c1 [AZD2811] (first compound max 10 µM, 7x7, partner max 1 µM)	0.0448	-0.0172	-0.0635	0.245	0.266	0.449	0.985	0.262	0.255	0.318	0.271	0.0323	0.614	0.386	0.347	0.44	0.185	0.382	0.596	0.287
N#Cc1cnc(Nc2cc(NC[C@H]3CNCCO3)c(C(F)(F)F)cn2)cn1 [SRA737] + Nc1ccn([C@@H]2O[C@H](CO)[C@@H](O)C2(F)F)c(=O)n1 [Gemcitabine] (first compound max 10 µM, 7x7, partner max 0.3 µM)	0.0042	0.0948	0.017	0.634	0.882	0.881	1	0.685	0.956	0.515	0.655	–	–	–	–	–	–	–	–	–
COc1cc2ncnc(Nc3ccc(F)c(Cl)c3)c2cc1OCCCN1CCOCC1 [Gefitinib] + CC(C)n1c(=O)n(C)c2cnc3cc(F)c(-c4ccc(OCCCN5CCCCC5)nc4)cc3c21 [AZD1390] (first compound max 10 µM, 7x7, partner max 0.3 µM)	-0.0555	-0.0622	-0.0499	0.221	0.129	0.32	0.139	0.203	0.401	0.249	0.197	-0.0662	0.556	0.0968	0.353	0.0902	0.318	0.137	0.384	0
COc1nnc2ccc(N3CCC(c4ccc(OCCN5CCN(C)C(=O)[C@H]5C)cc4)CC3)nn12 [AZD5153] + CN(CC[C@H](CSC1=CC=CC=C1)NC2=C(C=C(C=C2)S(=O)(=O)NC(=O)C3=CC=C(C=C3)N4CCC(CC4)[C@H](C5=CC=CC=C5C6=CC=C(C=C6)Cl)O)S(=O)(=O)C(F)(F)F)CCO [AZD4320] (first compound max 1 µM, 7x7, partner max 1 µM)	–	–	–	–	–	–	–	–	–	–	–	0.0387	0.928	0.557	0.943	0.726	0.266	0.189	1	0.61
Cc1nc(Nc2ncc(C(=O)Nc3c(C)cccc3Cl)s2)cc(N2CCN(CCO)CC2)n1 [Dasatinib] + CC(=O)Nc1cccc(-n2c(=O)n(C3CC3)c(=O)c3c(Nc4ccc(I)cc4F)n(C)c(=O)c(C)c32)c1 [Trametinib] (first compound max 2 µM, 7x7, partner max 1 µM)	-0.0409	0.0891	0.0024	0.216	0.329	1	0.0954	0.905	0.713	0.691	0.7	-0.0321	0.744	0.746	0.128	0.904	0.668	0.558	0.124	0.18
COc1cc2c(cc1OCCCCCOc1cc3c(cc1OC)C(=O)N1C=C(C)C[C@H]1C=N3)N=C[C@@H]1CC(C)=CN1C2=O [SG3199] + O=C(c1cc(Cc2n[nH]c(=O)c3ccccc23)ccc1F)N1CCN(C(=O)C2CC2)CC1 [Olaparib] (first compound max 0.001 µM, 7x7, partner max 10 µM)	-0.0565	-0.0211	-0.0156	0	0.0132	0.187	0.196	0.0819	0.164	0.0573	0.0017	-0.0459	0.354	0.292	0.0689	0.12	0.191	0.0807	0.913	0.102
CN(CCO)CC[C@H](CSc1ccccc1)Nc1ccc(S(=O)(=O)NC(=O)c2ccc(N3CCC([C@@H](O)c4ccccc4-c4ccc(Cl)cc4)CC3)cc2)cc1S(=O)(=O)C(F)(F)F [AZD4320] + Cc1cc2ncnn2cc1Nc1ncc2c(n1)n(C1CCOCC1)c(=O)n2C [AZD7648] (first compound max 1 µM, 7x7, partner max 10 µM)	0.0278	–	-0.0087	0.265	0.132	0.343	0.822	0.17	0.118	0.166	0.103	-0.0695	0.373	0.347	0.844	0.203	0.22	0.245	1	0.104
